Reference: ChEMBL document CHEMBL1212878, “In vitro ADMET and physicochemical investigations of poly-N-methylated peptides designed to inhibit Abeta aggregation” (Bioorg Med Chem, 2010)
Converted amounts (≈) assume the structure as drawn. The source made the active and inactive calls. The calls are words filed in the database; no cut-off is given here. Square brackets hold non-standard residues; d marks the D form. Peptide text beside a SMILES is read from it. NMeF = CN[C@@H](Cc1ccccc1)C(=O)O; NMeI = CC[C@H](C)[C@H](NC)C(=O)O; NMeL = CN[C@@H](CC(C)C)C(=O)O; NMeV = CN[C@H](C(=O)O)C(C)C; NMeA = CN[C@@H](C)C(=O)O; Sar = CNCC(=O)O

What was measured:
[1] = Aqueous solubility of the compound at pH 7.4; assay type: physicochemical
[2] = Chemical stability of the compound assessed as compound remaining after enzymatic degradation after 24 hrs; assay type: physicochemical; conditions: read-out: Activity
[3] = Apparent permeability across rat 2/4/A1 cells in absence of pronase inhibitor; assay type: ADME, cell-based
[4] = Cytotoxicity against rat 2/4/A1 cells assessed as cell viability up to 200 uM after 4 hrs by MTT assay; assay type: cell-based; conditions: read-out: Activity
[5] = Inhibition of Amyloid beta aggregation

solubility [1] | remaining at 24 h [2] | Papp [3] | inhibition [5] | Compound | viability at 4 h [4]
> 2500 µM | 94% | – | – | CC(=O)N[C@@H](CCCCN)C(=O)N(C)[C@@H](CC(C)C)C(=O)N[C@H](C(=O)N(C)[C@@H](Cc1ccccc1)C(=O)N[C@@H](Cc1ccccc1)C(=O)N(C)[C@@H](C)C(N)=O)C(C)C (Ac-K[NMeL]V[NMeF]F[NMeA]-NH2) | 95%
899 µM (≈ 751 µg/mL) | 98% | 2.3 ×10⁻⁶ cm/s | – | CC(=O)N[C@@H](CCCCN)C(=O)N(C)[C@@H](CC(C)C)C(=O)N(C)[C@H](C(=O)N(C)[C@@H](Cc1ccccc1)C(=O)N(C)[C@@H](Cc1ccccc1)C(=O)N(C)[C@@H](C)C(N)=O)C(C)C (Ac-K[NMeL][NMeV][NMeF][NMeF][NMeA]-NH2) | 95%
> 2500 µM | 94% | 1.6 ×10⁻⁶ cm/s | – | CC[C@H](C)[C@@H](C(=O)NCC(=O)N(C)[C@@H](CC(C)C)C(=O)N[C@@H](CCSC)C(=O)N(C)[C@H](C(=O)NCC(N)=O)C(C)C)N(C)C(C)=O (Ac-[NMeI]G[NMeL]M[NMeV]G-NH2) | 95%
> 2500 µM | 100% | 1.4 ×10⁻⁶ cm/s | – | CC[C@H](C)[C@@H](C(=O)N(C)CC(=O)N(C)[C@@H](CC(C)C)C(=O)N[C@@H](CCSC)C(=O)N(C)[C@H](C(=O)N(C)CC(N)=O)C(C)C)N(C)C(C)=O (Ac-[NMeI][Sar][NMeL]M[NMeV][Sar]-NH2) | 95%
32 µM | 36% | 2.8 ×10⁻⁶ cm/s | Active | Ac-KLVFFA-NH2 | 95%

The remaining lines, values behind:

Compound | solubility [1] | remaining at 24 h [2] | Papp [3] | inhibition [5] | viability at 4 h [4]
CC[C@H](C)[C@H](NC(C)=O)C(=O)N(C)CC(=O)N[C@@H](CC(C)C)C(=O)N[C@@H](CCSC)C(=O)N[C@H](C(=O)N(C)CC(N)=O)C(C)C (Ac-I[Sar]LMV[Sar]-NH2) | > 2500 µM | 60% | 2.2 ×10⁻⁶ cm/s | – | 95%
CC(=O)N[C@@H](CCCCN)C(=O)N[C@@H](CC(C)C)C(=O)N(C)[C@H](C(=O)N[C@@H](Cc1ccccc1)C(=O)N(C)[C@@H](Cc1ccccc1)C(=O)N[C@@H](C)C(N)=O)C(C)C (Ac-KL[NMeV]F[NMeF]A-NH2) | 1580 µM (≈ 1260 µg/mL) | 96% | – | – | 95%
Ac-IGLMVG-NH2 | 3 µM | 20% | 3.1 ×10⁻⁶ cm/s | – | 95%
